Source: the supplement of paper PMC11451515

Experiments:
Conditions in all cases: 48 h
[1] = system: SEM cells; assay: cell viability relative to DMSO control; higher = less cytotoxic
How it was run: (§1)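 Viability, reported as a per-plate percentage of DMSO wells with cell-free wells as background, came from CellTiter-Glo One luminescence. Reading took place after 48 h at 37°C. Before that, NOMO1 or SEM (500 cells/well) or P12-Ichikawa (1000 cells/well) leukemia cells, adapted for at least four passages in each medium, were seeded in 1536-well plates (5 μl) and pin-dosed with library compounds in DMSO, 47 μM to 0.79 nM over 11 threefold points.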

[2] = system: NOMO1; assay: AUC of viability dose-response curve (% viability x log10 dose units); higher = less sensitive
How it was run: (§2)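 Library compounds in DMSO were applied for 48 h at 37°C at 11 threefold doses (47 μM to 0.79 nM) to medium-adapted leukemia cells in 1536-well plates holding 500 or 1000 cells/well. Luminescence from CellTiter-Glo One was normalised plate by plate against DMSO and cell-free wells. Area under the curve came from trapezoidal integration of a log-logistic fit, after scaling curves that rose above full viability and discarding those that failed quality control. The fit had four parameters and used log10 doses.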

[3] = system: SEM cells; assay: as above
How it was run: as §2

[4] = system: P12-Ichikawa; assay: as above
How it was run: as §2

[5] = system: NOMO1; assay: cell viability relative to DMSO control; higher = less cytotoxic
How it was run: as §1

[6] = system: P12-Ichikawa; assay: as above
How it was run: as §1

Cc1cn[nH]c1
cell viability [%], [1]
Conditions	HPLM + 10% dialyzed FBS	RPMI 5 mM glucose + 10% dialyzed FBS
0.000781 µM	89.9	106
0.00234 µM	115	121
0.00702 µM	121	119
0.0211 µM	115	131
0.0632 µM	118	123
0.19 µM	122	131
0.569 µM	121	138
1.71 µM	121	123
5.12 µM	114	143
15.4 µM	69	94.6
46.1 µM	95.6	115

AUC of viability dose-response curve
Conditions	[2]	[3]	[4]
HPLM + 10% dialyzed FBS	456	456	461
RPMI 5 mM glucose + 10% FBS	471	458	469
RPMI 5 mM glucose + 10% dialyzed FBS	465	476	461

O=C(CS(=O)Cc1ccco1)NC/C=C\COc1cc(CN2CCCCC2)ccn1 (centres undefined)
cell viability [%]
Conditions	[1]	[5]	[6]
HPLM + 10% dialyzed FBS, 0.000781 µM	78.7	85	90.8
HPLM + 10% dialyzed FBS, 0.00234 µM	86.2	105	98.6
HPLM + 10% dialyzed FBS, 0.00702 µM	89.4	101	100
HPLM + 10% dialyzed FBS, 0.0211 µM	96.9	102	98
HPLM + 10% dialyzed FBS, 0.0632 µM	93.8	93.3	101
HPLM + 10% dialyzed FBS, 0.19 µM	99.5	113	102
HPLM + 10% dialyzed FBS, 0.569 µM	102	93.8	107
HPLM + 10% dialyzed FBS, 1.71 µM	96.7	98.9	104
HPLM + 10% dialyzed FBS, 5.12 µM	102	89	107
HPLM + 10% dialyzed FBS, 15.4 µM	100	94.1	112
HPLM + 10% dialyzed FBS, 46.1 µM	97.3	92.9	100
RPMI 5 mM glucose + 10% FBS, 0.000781 µM	86	89.7	87.7
RPMI 5 mM glucose + 10% FBS, 0.00234 µM	91.3	87.5	88
RPMI 5 mM glucose + 10% FBS, 0.00702 µM	90.7	97.2	93.3
RPMI 5 mM glucose + 10% FBS, 0.0211 µM	87.1	95.7	99.8
RPMI 5 mM glucose + 10% FBS, 0.0632 µM	96.8	87.1	104
RPMI 5 mM glucose + 10% FBS, 0.19 µM	95.5	98.2	98.7
RPMI 5 mM glucose + 10% FBS, 0.569 µM	107	87.8	–
RPMI 5 mM glucose + 10% FBS, 1.71 µM	106	89.3	96.4
RPMI 5 mM glucose + 10% FBS, 5.12 µM	93.6	94.8	109
RPMI 5 mM glucose + 10% FBS, 15.4 µM	102	93.3	94.4
RPMI 5 mM glucose + 10% FBS, 46.1 µM	103	92.8	109
RPMI 5 mM glucose + 10% dialyzed FBS, 0.000781 µM	81.5	90	78.9
RPMI 5 mM glucose + 10% dialyzed FBS, 0.00234 µM	93.7	103	87.4
RPMI 5 mM glucose + 10% dialyzed FBS, 0.00702 µM	98.4	95	87.2
RPMI 5 mM glucose + 10% dialyzed FBS, 0.0211 µM	75.9	108	97.4
RPMI 5 mM glucose + 10% dialyzed FBS, 0.0632 µM	97.1	105	101
RPMI 5 mM glucose + 10% dialyzed FBS, 0.19 µM	88.4	103	94.4
RPMI 5 mM glucose + 10% dialyzed FBS, 0.569 µM	106	108	95.9
RPMI 5 mM glucose + 10% dialyzed FBS, 1.71 µM	97.3	97.4	92.3
RPMI 5 mM glucose + 10% dialyzed FBS, 5.12 µM	110	90.9	93.2
RPMI 5 mM glucose + 10% dialyzed FBS, 15.4 µM	99.8	105	105
RPMI 5 mM glucose + 10% dialyzed FBS, 46.1 µM	93.9	99.4	99.3

AUC of viability dose-response curve
Conditions	[2]	[3]	[4]
HPLM + 10% dialyzed FBS	464	455	459
RPMI 5 mM glucose + 10% FBS	440	452	463
RPMI 5 mM glucose + 10% dialyzed FBS	474	446	450

CC1=CC=C2N=C(NC(=O)CS\C3=N\C4=C(\SCC4)C(=O)N3C5=CC=CC=C5)SC2=C1
AUC of viability dose-response curve
Conditions	HPLM + 10% dialyzed FBS	RPMI 5 mM glucose + 10% FBS	RPMI 5 mM glucose + 10% dialyzed FBS
[3]	424	421	446
[4]	444	430	435
